Test results from patent US11572369B2, “Bicyclic pyridine compositions and methods of using the same for cancer therapy” (UNIVERSITY OF SOUTH CAROLINA, priority 2019, dated 2023).

How the values were obtained:
Experiment in all cases: KINOMEscan
Assay type in all cases: binding
Details in all cases: 2000 nM
AAK1 = target: T1, AAK1 (Homo sapiens, UniProt Q2M2I8)
T1 construct: DNA label (qPCR read-out); purchased DiscoverX (KINOMEscan service)

ACVR2A = target: T2, ACVR2A (Homo sapiens, UniProt P27037)
T2 construct: purchased DiscoveRx (KINOMEscan scanMAX panel, service)

RET(V804L) = target: T3, RET(V804L) (Homo sapiens, UniProt P07949, V804L)
T3 construct: purchased DiscoveRx (KINOMEscan scanMAX panel)

TRKC = target: T4, TRKC (Homo sapiens, UniProt Q16288)
T4 construct: DNA label (qPCR read-out); purchased KINOMEscan (DiscoveRx) ScanMAX panel

NLK = target: T5, NLK (Homo sapiens, UniProt Q9UBE8)
T5 construct: DNA label (qPCR read-out); purchased KINOMEscan (ScanMAX panel service)

ERBB2 = target: T6, ERBB2 (Homo sapiens, UniProt P04626)
T6 construct: DNA label (qPCR read-out); purchased DiscoveRx (KINOMEscan ScanMAX panel)

STK33 = target: T7, STK33 (Homo sapiens, UniProt Q9BYT3)
T7 construct: DNA label (for qPCR read-out); purchased DiscoveRx (KINOMEscan scanMAX panel, contract assay)

AURKA = target: T8, AURKA (Homo sapiens, UniProt O14965)
T8 construct: DNA label (qPCR read-out); purchased KINOMEscan scanMAX panel (DiscoveRx)

ROCK2 = target: T9, ROCK2 (Homo sapiens, UniProt O75116)
T9 construct: DNA label (qPCR read-out); purchased DiscoveRx (KINOMEscan ScanMAX panel)

CAMK2D = target: T10, CAMK2D (Homo sapiens, UniProt Q13557)
T10 construct: DNA label (qPCR read-out); purchased KINOMEscan (ScanMAX panel service)

MERTK = target: T11, MERTK (Homo sapiens, UniProt Q12866)
T11 construct: purchased DiscoveRx (KINOMEscan scanMAX panel, service)

MINK = target: T12, MINK (Homo sapiens, UniProt Q8N4C8)
T12 construct: DNA label (qPCR read-out); purchased KINOMEscan scanMAX panel (DiscoveRx)

AKT3 = target: T13, AKT3 (Homo sapiens, UniProt Q9Y243)
T13 construct: purchased DiscoveRx (KINOMEscan scanMAX panel, service)

NEK9 = target: T14, NEK9 (Homo sapiens, UniProt Q8TD19)
T14 construct: DNA label (qPCR read-out); purchased KINOMEscan (ScanMAX panel service)

CDC2L1 = target: T15, CDC2L1 (Homo sapiens, UniProt P21127)
T15 construct: DNA label (qPCR read-out); purchased KINOMEscan (ScanMAX panel service)

GSK3B = target: T16, GSK3B (Homo sapiens, UniProt P49841)
T16 construct: DNA label (for qPCR read-out); purchased DiscoveRx (KINOMEscan scanMAX panel, contract assay)

CDK11 (CDK19) = target: T17, CDK11 (CDK19) (Homo sapiens, UniProt Q9BWU1)
T17 construct: purchased DiscoverX (KINOMEscan service)

ABL1-nonphosphorylated = ABL1-nonphosphorylated (Homo sapiens, UniProt P00519)
PIK3CD = target: T18, PIK3CD (Homo sapiens, UniProt O00329)
T18 construct: DNA label; purchased DiscoveRx (KINOMEscan scanMAX panel)

LYN = LYN (Homo sapiens, UniProt P07948)
BLK = target: T19, BLK (Homo sapiens, UniProt P51451)
T19 construct: DNA label (for qPCR read-out); purchased KINOMEscan scanMAX panel (DiscoveRx)

IGF1R = target: T20, IGF1R (Homo sapiens, UniProt P08069)
T20 construct: DNA label (qPCR read-out); purchased KINOMEscan (DiscoveRx) ScanMAX panel

WNK2 = target: T21, WNK2 (Homo sapiens, UniProt Q9Y3S1)
T21 construct: purchased KINOMEscan (DiscoveRx) panel service

WNK1 = target: T22, WNK1 (Homo sapiens, UniProt Q9H4A3)
T22 construct: purchased KINOMEscan (DiscoveRx) panel service

LCK = target: T23, LCK (Homo sapiens, UniProt P06239)
T23 construct: purchased KINOMEscan (DiscoveRx) panel service

MARK2 = MARK2 (Homo sapiens, UniProt Q7KZI7)
BMPR2 = target: T24, BMPR2 (Homo sapiens, UniProt Q13873)
T24 construct: DNA label (for qPCR read-out); purchased KINOMEscan scanMAX panel (DiscoveRx)

CSNK2A1 = target: T25, CSNK2A1 (Homo sapiens, UniProt P68400)
T25 construct: DNA label; purchased DiscoveRx (KINOMEscan scanMAX panel)

NIM1 = target: T26, NIM1 (Homo sapiens, UniProt Q8IY84)
T26 construct: DNA label (qPCR read-out); purchased KINOMEscan (ScanMAX panel service)

FYN = target: T27, FYN (Homo sapiens, UniProt P06241)
T27 construct: purchased KINOMEscan (DiscoveRx)

KIT(D816V) = target: T28, KIT(D816V) (Homo sapiens, UniProt P10721, D816V)
T28 construct: DNA label (for qPCR read-out); purchased DiscoveRx (KINOMEscan scanMAX panel)

FLT1 = target: T29, FLT1 (Homo sapiens, UniProt P17948)
T29 construct: purchased DiscoveRx (KINOMEscan scanMAX panel)

CASK = target: T30, CASK (Homo sapiens, UniProt O14936)
T30 construct: DNA label (qPCR read-out); purchased KINOMEscan (ScanMAX panel service)

FGFR2 = target: T31, FGFR2 (Homo sapiens, UniProt P21802)
T31 construct: purchased DiscoveRx (KINOMEscan scanMAX panel)

PAK6 = target: T32, PAK6 (Homo sapiens, UniProt Q9NQU5)
T32 construct: purchased DiscoverX (KINOMEscan service)

NEK3 = target: T33, NEK3 (Homo sapiens, UniProt P51956)
T33 construct: DNA label (qPCR read-out); purchased KINOMEscan (ScanMAX panel service)

SIK = target: T34, SIK (Homo sapiens, UniProt P57059)
T34 construct: purchased KINOMEscan (DiscoveRx)

Sequence of MARK2 (Q7KZI7 whole entry): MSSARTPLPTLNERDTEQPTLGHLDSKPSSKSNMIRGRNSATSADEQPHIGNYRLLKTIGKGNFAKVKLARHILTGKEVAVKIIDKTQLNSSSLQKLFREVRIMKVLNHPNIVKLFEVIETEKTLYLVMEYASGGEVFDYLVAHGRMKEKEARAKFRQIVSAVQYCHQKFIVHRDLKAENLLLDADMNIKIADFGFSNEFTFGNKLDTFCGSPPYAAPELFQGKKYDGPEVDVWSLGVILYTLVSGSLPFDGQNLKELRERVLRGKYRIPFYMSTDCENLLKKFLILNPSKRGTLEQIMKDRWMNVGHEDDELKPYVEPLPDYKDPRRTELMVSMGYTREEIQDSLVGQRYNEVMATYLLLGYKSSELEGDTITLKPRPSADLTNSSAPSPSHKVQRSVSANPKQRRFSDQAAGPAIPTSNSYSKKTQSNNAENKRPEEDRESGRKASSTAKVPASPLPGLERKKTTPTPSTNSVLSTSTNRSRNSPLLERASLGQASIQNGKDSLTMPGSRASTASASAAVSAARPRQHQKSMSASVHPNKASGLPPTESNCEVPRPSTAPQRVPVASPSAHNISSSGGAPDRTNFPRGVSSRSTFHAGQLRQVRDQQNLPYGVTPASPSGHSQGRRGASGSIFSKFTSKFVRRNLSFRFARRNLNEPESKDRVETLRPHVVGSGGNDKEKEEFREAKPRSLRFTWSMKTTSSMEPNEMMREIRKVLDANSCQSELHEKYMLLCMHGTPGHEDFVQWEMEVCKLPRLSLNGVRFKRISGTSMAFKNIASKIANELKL
T3 sequence (P07949 29-1114 V804L): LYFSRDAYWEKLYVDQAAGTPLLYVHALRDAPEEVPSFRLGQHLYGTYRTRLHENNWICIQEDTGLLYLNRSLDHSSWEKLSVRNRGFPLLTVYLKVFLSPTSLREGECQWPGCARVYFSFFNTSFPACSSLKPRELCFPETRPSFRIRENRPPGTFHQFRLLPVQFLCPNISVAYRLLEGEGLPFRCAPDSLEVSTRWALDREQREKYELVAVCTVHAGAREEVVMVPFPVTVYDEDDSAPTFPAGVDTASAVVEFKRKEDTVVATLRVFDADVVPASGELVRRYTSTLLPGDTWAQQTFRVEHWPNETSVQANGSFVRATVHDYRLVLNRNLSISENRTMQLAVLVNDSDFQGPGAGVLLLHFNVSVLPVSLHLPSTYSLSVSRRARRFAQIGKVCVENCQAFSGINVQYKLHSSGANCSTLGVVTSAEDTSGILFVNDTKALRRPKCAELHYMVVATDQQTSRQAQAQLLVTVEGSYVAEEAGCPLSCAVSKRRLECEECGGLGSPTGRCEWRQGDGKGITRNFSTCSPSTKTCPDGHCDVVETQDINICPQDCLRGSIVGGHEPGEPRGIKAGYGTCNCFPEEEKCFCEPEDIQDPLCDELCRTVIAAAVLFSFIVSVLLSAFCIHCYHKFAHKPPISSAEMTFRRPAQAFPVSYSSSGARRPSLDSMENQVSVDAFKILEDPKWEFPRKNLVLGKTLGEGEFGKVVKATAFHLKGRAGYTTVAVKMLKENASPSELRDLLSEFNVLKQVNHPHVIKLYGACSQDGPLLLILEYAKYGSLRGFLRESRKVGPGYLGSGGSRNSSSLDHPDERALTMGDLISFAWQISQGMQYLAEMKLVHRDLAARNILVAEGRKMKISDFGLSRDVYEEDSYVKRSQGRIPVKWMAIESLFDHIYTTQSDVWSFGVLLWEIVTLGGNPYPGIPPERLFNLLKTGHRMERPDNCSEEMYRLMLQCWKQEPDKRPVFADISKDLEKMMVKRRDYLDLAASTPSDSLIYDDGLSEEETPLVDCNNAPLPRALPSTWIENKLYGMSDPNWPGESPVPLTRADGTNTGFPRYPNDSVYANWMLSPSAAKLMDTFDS
T7 sequence (Q9BYT3 whole entry): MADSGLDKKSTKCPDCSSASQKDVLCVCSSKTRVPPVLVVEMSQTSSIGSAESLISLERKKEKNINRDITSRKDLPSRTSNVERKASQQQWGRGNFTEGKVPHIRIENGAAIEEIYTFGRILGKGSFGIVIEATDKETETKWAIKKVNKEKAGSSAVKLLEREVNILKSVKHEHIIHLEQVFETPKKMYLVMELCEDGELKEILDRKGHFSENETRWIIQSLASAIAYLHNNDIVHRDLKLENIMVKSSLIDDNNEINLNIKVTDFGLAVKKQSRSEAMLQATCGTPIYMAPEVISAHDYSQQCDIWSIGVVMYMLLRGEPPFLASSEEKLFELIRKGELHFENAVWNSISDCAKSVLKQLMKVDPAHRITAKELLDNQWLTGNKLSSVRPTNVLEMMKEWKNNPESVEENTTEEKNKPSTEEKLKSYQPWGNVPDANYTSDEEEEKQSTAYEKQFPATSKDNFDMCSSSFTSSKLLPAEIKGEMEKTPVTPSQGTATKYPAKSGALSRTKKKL
T21 sequence (Q9Y3S1 whole entry): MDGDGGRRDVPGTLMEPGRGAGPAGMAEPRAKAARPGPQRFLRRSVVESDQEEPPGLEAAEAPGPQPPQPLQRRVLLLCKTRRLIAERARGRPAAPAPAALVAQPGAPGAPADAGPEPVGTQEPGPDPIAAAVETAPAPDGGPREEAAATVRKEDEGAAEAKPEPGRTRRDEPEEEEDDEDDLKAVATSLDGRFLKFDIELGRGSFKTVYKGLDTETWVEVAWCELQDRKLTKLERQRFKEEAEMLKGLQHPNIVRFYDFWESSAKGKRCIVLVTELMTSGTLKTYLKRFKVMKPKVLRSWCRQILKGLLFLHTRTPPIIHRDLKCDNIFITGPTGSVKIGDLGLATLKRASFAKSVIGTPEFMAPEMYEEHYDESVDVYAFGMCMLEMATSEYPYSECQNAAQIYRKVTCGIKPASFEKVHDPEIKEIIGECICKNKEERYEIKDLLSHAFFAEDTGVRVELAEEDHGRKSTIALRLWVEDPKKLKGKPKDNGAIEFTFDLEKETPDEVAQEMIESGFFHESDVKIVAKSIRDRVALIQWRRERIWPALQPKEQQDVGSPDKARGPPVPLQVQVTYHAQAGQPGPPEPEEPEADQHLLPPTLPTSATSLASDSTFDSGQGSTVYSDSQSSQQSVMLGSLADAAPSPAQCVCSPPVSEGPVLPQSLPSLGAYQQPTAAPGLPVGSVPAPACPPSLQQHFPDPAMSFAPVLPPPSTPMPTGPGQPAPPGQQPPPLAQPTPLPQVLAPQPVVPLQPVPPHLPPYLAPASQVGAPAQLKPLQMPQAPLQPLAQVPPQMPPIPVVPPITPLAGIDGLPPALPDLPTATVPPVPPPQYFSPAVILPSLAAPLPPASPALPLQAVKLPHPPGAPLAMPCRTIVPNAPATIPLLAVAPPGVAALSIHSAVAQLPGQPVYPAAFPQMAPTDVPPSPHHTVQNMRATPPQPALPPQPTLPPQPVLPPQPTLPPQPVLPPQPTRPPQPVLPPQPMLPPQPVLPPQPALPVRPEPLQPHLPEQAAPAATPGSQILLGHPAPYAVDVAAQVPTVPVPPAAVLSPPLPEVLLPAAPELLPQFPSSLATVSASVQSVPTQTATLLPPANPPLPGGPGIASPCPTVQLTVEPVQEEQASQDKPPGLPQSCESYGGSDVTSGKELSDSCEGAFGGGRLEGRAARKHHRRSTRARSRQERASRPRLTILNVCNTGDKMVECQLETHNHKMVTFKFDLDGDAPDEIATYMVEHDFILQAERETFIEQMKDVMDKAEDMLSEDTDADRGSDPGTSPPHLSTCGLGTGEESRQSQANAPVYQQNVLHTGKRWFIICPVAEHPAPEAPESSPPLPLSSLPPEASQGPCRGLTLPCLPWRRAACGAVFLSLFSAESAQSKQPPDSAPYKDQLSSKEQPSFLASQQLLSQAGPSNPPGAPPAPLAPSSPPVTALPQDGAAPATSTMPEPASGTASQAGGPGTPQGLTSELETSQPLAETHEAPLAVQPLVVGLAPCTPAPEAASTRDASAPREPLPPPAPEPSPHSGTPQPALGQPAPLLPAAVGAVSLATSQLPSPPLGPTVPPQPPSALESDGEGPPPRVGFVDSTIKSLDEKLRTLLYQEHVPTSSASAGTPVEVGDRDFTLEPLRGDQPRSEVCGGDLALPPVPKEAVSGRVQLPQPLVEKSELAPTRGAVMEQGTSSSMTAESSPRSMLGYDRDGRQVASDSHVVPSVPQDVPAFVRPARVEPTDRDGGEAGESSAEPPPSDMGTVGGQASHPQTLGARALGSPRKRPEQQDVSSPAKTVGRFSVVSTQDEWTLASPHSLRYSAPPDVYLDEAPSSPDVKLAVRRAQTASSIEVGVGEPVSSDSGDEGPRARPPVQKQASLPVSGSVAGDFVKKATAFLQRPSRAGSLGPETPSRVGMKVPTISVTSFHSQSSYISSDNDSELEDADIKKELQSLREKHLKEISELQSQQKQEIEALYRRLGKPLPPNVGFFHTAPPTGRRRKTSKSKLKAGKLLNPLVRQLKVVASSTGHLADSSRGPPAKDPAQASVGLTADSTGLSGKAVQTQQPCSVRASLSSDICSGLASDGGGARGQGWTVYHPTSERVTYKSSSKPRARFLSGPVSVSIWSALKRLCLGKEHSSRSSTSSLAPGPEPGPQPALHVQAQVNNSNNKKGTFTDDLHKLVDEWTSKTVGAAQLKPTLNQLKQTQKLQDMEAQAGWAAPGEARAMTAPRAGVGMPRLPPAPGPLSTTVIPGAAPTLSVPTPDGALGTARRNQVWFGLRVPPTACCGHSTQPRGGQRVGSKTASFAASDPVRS
T25 sequence (P68400 whole entry): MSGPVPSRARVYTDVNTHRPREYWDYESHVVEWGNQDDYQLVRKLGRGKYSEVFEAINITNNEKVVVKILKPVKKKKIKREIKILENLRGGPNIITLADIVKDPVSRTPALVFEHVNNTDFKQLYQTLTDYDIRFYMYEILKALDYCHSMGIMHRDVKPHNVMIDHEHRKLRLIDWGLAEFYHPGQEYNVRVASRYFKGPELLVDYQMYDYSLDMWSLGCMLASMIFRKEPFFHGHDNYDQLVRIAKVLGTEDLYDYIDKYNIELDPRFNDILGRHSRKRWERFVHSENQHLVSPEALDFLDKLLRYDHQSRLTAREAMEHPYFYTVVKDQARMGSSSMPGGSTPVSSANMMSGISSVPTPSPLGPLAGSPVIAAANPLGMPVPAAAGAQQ

SMILES	% Ctrl (AAK1)	% Ctrl (ACVR2A)	% Ctrl (RET(V804L))	% Ctrl (TRKC)	% Ctrl (NLK)	% Ctrl (ERBB2)	% Ctrl (STK33)	% Ctrl (AURKA)	% Ctrl (ROCK2)	% Ctrl (CAMK2D)	% Ctrl (MERTK)	% Ctrl (MINK)	% Ctrl (AKT3)	% Ctrl (NEK9)	% Ctrl (CDC2L1)	% Ctrl (GSK3B)	% Ctrl (CDK11 (CDK19))	% Ctrl (ABL1-nonphosphorylated)	% Ctrl (PIK3CD)	% Ctrl (LYN)	other results
[2H]C([2H])([2H])N(C(=O)c1ccc(N2CCCN(c3ccnc4sc(C(N)=O)c(N)c34)CC2)cc1)C([2H])([2H])[2H] [15u_D6, 3-amino-4-(4-(4-(bis(methyl-d3)carbamoyl)phenyl)-1,4-diazepan-1-yl)thieno[2,3-b]pyridine-2-carboxamide]	90 % Ctrl	92 % Ctrl	100 % Ctrl	85 % Ctrl	98 % Ctrl	89 % Ctrl	100 % Ctrl	99 % Ctrl	80 % Ctrl	92 % Ctrl	100 % Ctrl	87 % Ctrl	100 % Ctrl	89 % Ctrl	100 % Ctrl	77 % Ctrl	0 % Ctrl	78 % Ctrl	71 % Ctrl	98 % Ctrl	% Ctrl (BLK): 92 % Ctrl; % Ctrl (IGF1R): 91 % Ctrl; % Ctrl (WNK2): 94 % Ctrl; % Ctrl (WNK1): 93 % Ctrl; % Ctrl (LCK): 100 % Ctrl; % Ctrl (MARK2): 96 % Ctrl; % Ctrl (BMPR2): 88 % Ctrl; % Ctrl (CSNK2A1): 59 % Ctrl; % Ctrl (NIM1): 78 % Ctrl; % Ctrl (FYN): 97 % Ctrl; % Ctrl (KIT(D816V)): 79 % Ctrl; % Ctrl (FLT1): 100 % Ctrl; % Ctrl (CASK): 96 % Ctrl; % Ctrl (FGFR2): 98 % Ctrl; % Ctrl (PAK6): 99 % Ctrl; % Ctrl (NEK3): 76 % Ctrl; % Ctrl (SIK): 79 % Ctrl
CN(C)C(=O)c1ccc(N2CCCN(c3ccnc4sc(C(N)=O)c(N)c34)CC2)cc1 [15u, 3-amino-4-(4-(4-(dimethylcarbamoyl)phenyl)-1,4-diazepan-1-yl)thieno[2,3-b]pyridine-2-carboxamide]	94 % Ctrl	95 % Ctrl	100 % Ctrl	91 % Ctrl	98 % Ctrl	100 % Ctrl	100 % Ctrl	98 % Ctrl	100 % Ctrl	99 % Ctrl	89 % Ctrl	100 % Ctrl	97 % Ctrl	100 % Ctrl	63 % Ctrl	79 % Ctrl	13 % Ctrl	95 % Ctrl	94 % Ctrl	100 % Ctrl	% Ctrl (BLK): 100 % Ctrl; % Ctrl (IGF1R): 92 % Ctrl; % Ctrl (WNK2): 96 % Ctrl; % Ctrl (WNK1): 100 % Ctrl; % Ctrl (LCK): 91 % Ctrl; % Ctrl (MARK2): 100 % Ctrl; % Ctrl (BMPR2): 79 % Ctrl; % Ctrl (CSNK2A1): 100 % Ctrl; % Ctrl (NIM1): 56 % Ctrl; % Ctrl (FYN): 99 % Ctrl; % Ctrl (KIT(D816V)): 93 % Ctrl; % Ctrl (FLT1): 100 % Ctrl; % Ctrl (CASK): 71 % Ctrl; % Ctrl (FGFR2): 99 % Ctrl; % Ctrl (PAK6): 82 % Ctrl; % Ctrl (NEK3): 100 % Ctrl; % Ctrl (SIK): 84 % Ctrl
